Laboratory results reported in patent publication US11779544B1, “Antithrombotic nanoparticles and methods for treating necrotizing enterocolitis” (University of South Florida, priority 2018, dated 2023).
Structures can show the parent of a compound that is named as a salt.

Experiments:
plasma thrombin activity = test: Plasma thrombin activity in pups pre-treated with PCI-27483 before intestinal injury; type: in vivo, mice; conditions: pre-treatment with PCI-27483
Text: FIGS. 5A-5F. Resident intestinal macrophages release tissue factor to activate thrombin during neonatal intestinal injury. FIG. 5a. Scatterplots (means±SEM) show tissue factor (TF) concentrations in plasma and intestinal tissue at serial time points during neonatal intestinal injury, measured by ELISA. N=6 mice/group; Kruskal Wallis H test with Dunn's post-test for group comparisons, * P<0.05, ** P<0.01 vs. control; FIG. 5b. Plasma thrombin activity in mouse pups with intestinal injury vs. mouse pups first treated with PCI-27483, which inhibits the tissue factor-factor VII extrinsic pathway tenase complex. N=4 mice/group; Kruskal Wallis H test with Dunn's post-test for group comparisons, ***P<0.001 vs. control, ##P<0.01 vs. control treated with PCI-27483; FIG. 5c. Representative fluorescence photomicrographs show immunoreactivity for TF (green) in F4/80^+ (red) resident macrophages in control ileum and colon. […] FIG. 5d Scatter plots on right summarize the fluorescence intensity for TF in control intestinal epithelial cells (IECs), control macrophages, injury IECs, and injury macrophages (top) and in control colonic epithelial cells (CECs), control macrophages, injury CECs, and injury macrophages. […]
To investigate the mechanisms for thrombin activation, tissue factor (TF) concentrations were evaluated during NEC-like intestinal injury. […]

[1] = cited from earlier work
[2] = in vivo; cited from earlier work
YFP+ platelets = test: Transfusion of bivalirudin-pretreated YFP+ platelets into pups with intestinal injury, CD31 expression; type: in vivo, mice; conditions: YFP+ platelets pre-treated with bivalirudin prior to transfusion, blood drawn 3 h after transfusion
Description: (§1) FIG. 3b. Plasma from mouse pups with intestinal injury activates platelets via thrombin. […] N=3 mice/group; 2 runs; Kruskal Wallis H test with Dunn's post-test for group comparisons, ** P<0.01 vs. control, #P<0.05 vs. intestinal injury; FIG. 3c Thrombin activates platelets during murine neonatal intestinal injury. YFP^+ platelets were transfused into WT C57BL/6 pups with intestinal injury, and blood samples were drawn after 3 h. […] Treatment of YFP^+ platelets with bivalirudin prior to transfusion blocked activation-related increase in CD31 expression (lower right). […] N=4 mice/group; Kruskal Wallis H test with Dunn's post-test for group comparisons, * P<0.05 vs. untreated YFP^+ platelets, #P<0.05 vs. endogenous platelets in the bivalirudin-treated YFP^+ platelet transfusion group. […]
(§2) Platelet activation markers were measured by flow cytometry, using the following fluorescence-labeled antibodies: JON/A (Emfret); anti-CD62P, anti-CD41/GPIIb, CD61/integrin αvβ3, CD31/PECAM-1 (BioLegend, San Diego, Calif.). Platelets were evaluated by size-gate threshold adjustment with microbeads of known diameter (100 nm to 1.3 μm; Spherotech, Lake Forest, Ill.) in forward and side-scatter. […] Platelet aggregation was measured by impedance method and ATP release by luminometry using a 2-channel Chrono-Log lumi-aggregometer (model 700, Chrono-Log, Havertown, Pa., USA) per established methods. […]

P10 platelets [3] = test: Mixing experiment: dense granule discharge (mepacrine release) of control platelets resuspended in intestinal injury plasma; type: cell-based, mice; conditions: mepacrine fluorescence released into supernatant; intestinal injury plasma at 3 h with added inhibitor
Description: FIGS. 12A and 12B. (A) Scatter bar diagrams (means±SEM) show mepacrine fluorescence signal released from control P10 platelets into the supernatant, following resuspension in plasma from pups in (1) control group; (2) intestinal injury at 3 h; and (3) intestinal injury at 3 h with added bivalirudin, a synthetic peptide inhibitor of thrombin. N=6 mice/group; (B) mepacrine fluorescence released from control platelets following resuspension in plasma from (1) control group (N=8 mice); (2) intestinal injury at 3 h (N=12 mice); and (3) intestinal injury at 3 h with added D-phenylalanyl-prolyl-arginyl chloromethyl ketone (PPACK), a different thrombin inhibitor (N=11 mice). Kruskal Wallis H test with Dunn's post-test for group comparisons; * P<0.05, ** P<0.01 vs. control; #P<0.05, ###P<0.001 vs. intestinal injury plasma.
(§3) Neonatal platelets can be hyporesponsive under specific conditions, [Mull M M, Hathaway W E. Altered platelet function in newborns. Pediatr Res. 1970; 4(3):229-237] and therefore, the ability of neonatal murine platelets to respond to thrombin was checked. Treatment of mepacrine-stained P10 platelets with recombinant thrombin ([…]) caused dense granule discharge within 15 min (FIG. 11). […]
(§4) Dense granules were stained with mepacrine (Quinacrine dihydrochloride; Sigma). […] Fluorescence was measured at 436/525 nm.

P10 platelets [4] = test: Duration of bivalirudin inhibition of thrombin-mediated dense granule discharge after point-exposure and wash; type: cell-based, mice; conditions: platelets treated with bivalirudin in vitro and washed; thrombin 25 ng/mL
Description: FIG. 13. Line diagrams (means±SEM) show mepacrine fluorescence signal released over time from control (blue) and bivalirudin-treated and washed (orange) P10 platelets into the supernatant, following treatment with thrombin (25 ng/mL). Data represent 3 separate experiments; each experiment included platelets pooled from 3 pups; Kruskal Wallis H test with Dunn's post-test for group comparisons; * P<0.05 vs. control.
In vivo assessment was performed for thrombin-mediated platelet activation during neonatal intestinal injury. […] In the next in vivo study, wild-type neonatal mice 3 h into intestinal injury were transfused with platelets expressing enhanced yellow fluorescence protein (YFP; platelets harvested from progeny of PF4-cre mice (C57BL/6-Tg(Cxcl4-cre)Q3Rsko/J)×R26-stop-YFP mutant mice (B6.129X1-Gt(ROSA)26Sortm1(EYFP)Cos/J). In some mice, YFP^+ platelets were pre-treated with bivalirudin prior to transfusion, and CD31 expression was then measured for both the endogenous and the bivalirudin-treated transfused YFP^+ platelets in blood samples drawn 3 h after the transfusion. Bivalirudin-pretreatment curtailed CD31 expression on YFP^+ platelets (FIG. 3c), providing further evidence for a role of thrombin as the primary platelet activator in NEC-like neonatal intestinal injury. […]

[5] = test system: platelets from control pups; test: CD31 expression on control platelets resuspended in intestinal injury plasma; type: cell-based, mice; conditions: bivalirudin 200 ng/mL; platelets resuspended ×45 min
Description: as §1, §2

P10 platelets [6] = test: Recombinant thrombin treatment of mepacrine-stained platelets, dense granule discharge; type: cell-based, mice; conditions: recombinant thrombin (25 μg/mL)
Description: FIGS. 11A and 11B. Scatter bar diagrams (means±SEM) show (A) mepacrine fluorescence signal in platelets isolated from control P10 mice at serial time-points after treatment with recombinant thrombin (25 ng/mL). Fluorescence signal normalized and depicted as percent of control. Data represent 3 separate experiments; each experiment included platelets pooled from 3 pups; (B) mepacrine fluorescence signal released into the supernatant after thrombin stimulation. Kruskal Wallis H test with Dunn's post-test for group comparisons; ** P<0.01,*** P<0.001 vs. control.
as §3, §4

Molecule: N=C(N)c1ccc2nc(-c3cc(CC(=O)N[C@@H](CC(=O)O)C(=O)O)cc(-c4cc(S(N)(=O)=O)ccc4O)c3O)[nH]c2c1 [PCI-27483]
- rise in plasma thrombin activity during intestinal injury (plasma thrombin activity): blocked the rise

Molecule: N=C(N)NCCCC(NC(=O)C1CCCN1C(=O)[C@H](N)Cc1ccccc1)C(=O)CCl (stereo partly drawn) [PPACK, D-phenylalanyl-N-[(1S)-4-[(aminoiminomethyl)amino]-1-(2-chloroacetyl)butyl]-L-prolinamide, trifluoroacetate salt]
- LD50 ([1]; in vivo): greater than 50 mg/kg
- long-term toxicity ([1]; mice): no long-term toxicity
- distribution half-life [2]: 7 min
- elimination half-life [2]: 2.9 min

Molecule: bivalirudin: synthetic peptide of 20 amino acids (SEQ ID NO: 1); specific and reversible direct thrombin inhibitor
- CD31 expression on transfused YFP+ platelets (YFP+ platelets): blocked
- CD31 expression on transfused YFP+ platelets (YFP+ platelets; listed as Bivalirudin): curtailed
- platelet dense granule discharge caused by plasma from mice with intestinal injury (P10 platelets [3]): blocked
- time bivalirudin-treated platelets remained refractory to thrombin (P10 platelets [4]): ≥ 120 min
- effects of intestinal injury plasma on platelet CD31 expression [5]: blocked

Molecule: recombinant thrombin: Recombinant mouse thrombin (Molecular Innovations), used as platelet activator
- time to dense granule discharge (P10 platelets [6]): ≤ 15 min
